According to the supplement of paper PMC10307832:

Columns and labels:
Assay in all cases: relative viability (nuclei count vs DMSO), 5 days (fraction); higher = more cells survive
[1] = compound: CN(NC(=O)CC(=O)NN(C)C(=S)c1ccccc1)C(=S)c1ccccc1 [Elesclomol]
Summary of the method: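 Viability was defined as treated-well nuclei divided by vehicle-well nuclei, with the median taken over replicate plates. Cells from lung cancer lines sat overnight at 37 °C in 1536-well plates, received five √10-spaced library-drug doses by pinning on vehicle-anchored plates, and grew 5 days without medium change before one-step fixation, permeabilisation and Hoechst staining, 4× imaging and MetaXpress nuclear counts. Only plates with control CV under 25% and at least one doubling were kept.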

[2] = compound: CN(NC(=O)CC(=O)NN(C)C(=S)c1ccccc1)C(=S)c1ccccc1 [Elesclomol] + CC1(C)CCC(c2ccc(Cl)cc2)=C(CN2CCN(c3ccc(C(=O)NS(=O)(=O)c4ccc(N[C@H](CCN5CCOCC5)CSc5ccccc5)c(S(=O)(=O)C(F)(F)F)c4)cc3)CC2)C1 [Navitoclax] (partner 0.5 µM)
Summary of the method: (§1)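 Relative viability divides the nuclei count in treated wells by that in vehicle wells. Lung cancer cell lines were seeded in 1536-well plates, dosed by pin tool the next day, and fixed and stained after 5 days in one step with final 0.05% Triton X-100, 1% formaldehyde and 1 ug/ml Hoechst. Dosing was a single drug or a fixed anchor-drug dose plus five library-drug doses (not always all listed) in √10 steps, and values are medians of duplicate plates imaged at 4×.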

[3] = compound: CN(NC(=O)CC(=O)NN(C)C(=S)c1ccccc1)C(=S)c1ccccc1 [Elesclomol] + COc1cccc2cc(-c3nc([C@H]4CC[C@H](C(=O)O)CC4)n4ncnc(N)c34)[nH]c12 [OSI-027] (partner 0.5 µM)
Summary of the method: as §1

[4] = compound: CN(NC(=O)CC(=O)NN(C)C(=S)c1ccccc1)C(=S)c1ccccc1 [Elesclomol] + Nc1ncn([C@H]2C[C@H](O)[C@@H](CO)O2)c(=O)n1 [Decitabine] (partner 2 µM)
Summary of the method: as §1

[5] = compound: CN(NC(=O)CC(=O)NN(C)C(=S)c1ccccc1)C(=S)c1ccccc1 [Elesclomol] + CS(=O)(=O)N1CCN(Cc2cc3nc(-c4cccc5[nH]ncc45)nc(N4CCOCC4)c3s2)CC1 [Pictilisib] (partner 1 µM)
Summary of the method: as §1

| Cell Line | relative viability ([1]; 0.003162 µM) | relative viability ([1]; 0.01 µM) | relative viability ([1]; 0.03162 µM) | relative viability ([1]; 0.1 µM) | relative viability ([2]; first compound 0.003162 µM) | relative viability ([2]; first compound 0.01 µM) | relative viability ([2]; first compound 0.03162 µM) | relative viability ([2]; first compound 0.1 µM) | relative viability ([3]; first compound 0.003162 µM) | relative viability ([3]; first compound 0.01 µM) | relative viability ([3]; first compound 0.03162 µM) | relative viability ([3]; first compound 0.1 µM) | relative viability ([4]; first compound 0.003162 µM) | relative viability ([4]; first compound 0.01 µM) | relative viability ([4]; first compound 0.03162 µM) | relative viability ([4]; first compound 0.1 µM) | relative viability ([5]; first compound 0.003162 µM) | relative viability ([5]; first compound 0.01 µM) | relative viability ([5]; first compound 0.03162 µM) | relative viability ([5]; first compound 0.1 µM) |
| --- | --- | --- | --- | --- | --- | --- | --- | --- | --- | --- | --- | --- | --- | --- | --- | --- | --- | --- | --- | --- |
| NCI-H1734 | 0.976 | 0.794 | 0.32 | 0.127 | 0.852 | 0.841 | 0.636 | 0.0859 | 0.573 | 0.491 | 0.178 | 0.124 | 0.483 | 0.445 | 0.188 | 0.101 | 0.511 | 0.328 | 0.248 | 0.117 |
| NCI-H1755 | 1.01 | 0.965 | 0.997 | 0.801 | 0.968 | 0.847 | 0.82 | 0.158 | 0.756 | 0.457 | 0.66 | 0.419 | 0.704 | 0.808 | 0.689 | 0.598 | 0.481 | 0.225 | 0.409 | 0.202 |
| NCI-H1792 | 0.916 | 0.51 | 0.762 | 0.513 | 0.608 | 0.566 | 0.504 | 0.628 | 0.724 | 0.547 | 0.67 | 0.61 | 0.53 | – | 0.523 | 0.443 | 0.262 | 0.171 | 0.3 | 0.357 |
| NCI-H1793 | 0.893 | 0.635 | 0.892 | 0.251 | 0.349 | 0.349 | 0.382 | 0.135 | 0.276 | 0.197 | 0.262 | 0.228 | 0.44 | 0.387 | 0.454 | 0.126 | 0.273 | 0.307 | 0.335 | 0.178 |
| NCI-H1915 | 0.994 | – | 1 | 0.606 | 0.784 | – | 0.792 | 0.799 | 0.616 | – | 0.587 | 0.357 | 0.254 | 0.265 | 0.277 | 0.205 | 0.924 | – | 0.916 | 0.821 |
| NCI-H1944 | 1.05 | 0.948 | 0.959 | 0.578 | 1.14 | 1.11 | 1.01 | 0.904 | 0.454 | 0.306 | 0.389 | 0.299 | 0.441 | 0.498 | 0.401 | 0.253 | 0.381 | 0.29 | 0.318 | 0.328 |
| NCI-H1975 | 0.988 | 0.732 | 0.278 | 0.181 | 1 | 1.1 | 0.209 | 0.12 | 0.863 | 0.455 | 0.392 | 0.0658 | 0.387 | 0.386 | 0.308 | 0.189 | 0.306 | 0.179 | 0.2 | 0.123 |
| NCI-H1993 | 0.978 | 0.871 | 0.782 | 0.543 | 0.934 | 1.19 | 0.63 | 0.508 | 0.552 | 0.498 | 0.616 | 0.513 | 0.613 | 0.505 | 0.477 | 0.389 | 0.798 | 0.909 | 0.807 | 0.603 |
| NCI-H2009 | 0.889 | 0.416 | 0.164 | 0.124 | 1.17 | 0.567 | 0.277 | 0.11 | 0.448 | 0.131 | 0.126 | 0.0949 | 0.425 | 0.245 | 0.173 | 0.118 | 0.797 | 0.225 | 0.122 | 0.0966 |
| NCI-H2023 | 0.907 | 0.305 | 0.204 | 0.0874 | 0.99 | 0.455 | 0.111 | 0.102 | 0.351 | 0.128 | 0.0471 | 0.0389 | 0.219 | 0.181 | 0.0903 | 0.0614 | 0.219 | 0.148 | 0.0682 | 0.0514 |
| NCI-H2085 | 0.998 | 0.873 | 0.569 | 0.385 | 1.22 | 0.725 | 0.657 | 0.312 | 0.919 | 0.727 | 0.476 | 0.268 | 0.561 | 0.449 | 0.355 | 0.297 | 0.419 | 0.444 | 0.433 | 0.322 |
| NCI-H2087 | 0.987 | 0.743 | 0.624 | 0.313 | 0.924 | 0.728 | 0.499 | 0.469 | 0.422 | 0.283 | 0.357 | 0.225 | 0.379 | 0.226 | 0.175 | 0.082 | 0.879 | 0.559 | 0.491 | 0.495 |
| NCI-H2126 | 0.962 | 0.934 | 0.807 | 0.556 | 0.89 | 0.826 | 0.908 | 0.827 | 0.826 | 0.637 | 0.455 | 0.246 | 0.538 | 0.616 | 0.558 | 0.593 | 0.501 | 0.462 | 0.494 | 0.495 |
| NCI-H2170 | 0.967 | 0.938 | 0.986 | 0.657 | 0.628 | 0.475 | 0.493 | 0.245 | 0.793 | 0.577 | 0.739 | 0.583 | 0.461 | 0.48 | 0.48 | 0.38 | 0.328 | 0.266 | 0.298 | 0.193 |
| NCI-H2347 | 1.01 | 0.918 | 0.858 | 0.616 | 0.809 | 0.668 | 0.905 | 0.299 | 0.389 | 0.389 | 0.173 | 0.211 | 0.662 | 0.56 | 0.534 | 0.475 | 0.543 | 0.689 | 0.629 | 0.396 |
| NCI-H2405 | 1.08 | 0.581 | 0.362 | 0.384 | 0.619 | 0.178 | 0.137 | 0.132 | 0.651 | 0.473 | 0.339 | 0.272 | 0.775 | 0.643 | 0.336 | 0.324 | 0.472 | 0.249 | 0.228 | 0.236 |
